The values that follow come from article PMC9446799, “Preparation of a camptothecin analog FLQY2 self-micelle solid dispersion with improved solubility and bioavailability” (Journal of Nanobiotechnology, 2022).

Data set [1] relates to HCT 116 and MIA PaCa-2 cells. Briefly: MTT cytotoxicity assay. It is filed as cell-based, Human. How it is done:
(§1) The sample preparation: FLQY2 was dissolved in DMSO as a stock solution, and the stock solution was diluted by DMEM medium as a working solution. FLQY2-SD/ FLQY2-PM powder was dissolved in water, then the FLQY2-SD/FLQY2-PM solution was diluted by DMEM medium.
(§2) The cells were cultured in McCoy’s 5A medium for HCT 116 or DMEM medium for MIA PaCa-2 cells. All mediums contained 10% FBS and 1% penicillin–streptomycin solution. The cytotoxicity of FLQY2/FLQY2-SD was measured against these cells using an MTT assay. Briefly, 1 × 10^4 cells per well were seeded into 96 well plates for 24 h. Different concentrations of FLQY2 /FLQY2-SD solution and blank fresh medium were added to the plates and then incubated for 72 h. After adding MTT solution (5 mg/mL) for 4 h, 150 μL of DMSO was added to dissolve the formazan crystals. Absorbance at 570 nm with the control wavelength of 630 nm was used in infinite M200 pro (Tecan, Switzerland). Cell viability was expressed as a percentage relative to the blank control.

Data set [2] can be described thus: Identification of metabolites in plasma, urine and feces (UPLC-TripleTOF). The following applies: ESI−, [M-H]-; F, U, P not defined in the table (feces, urine, plasma samples analysed).
Experimental: The plasma, urine, and feces samples were processed as described above without IS, and the remaining volumes were made up of the precipitant. Chromatographic analysis was performed on an UltiMate 30 (Thermo Fisher Scientific, San Jose, CA, USA). Separation was carried out on an ACQUITY UPLC HSS T3 (1.8 μm, 2.1 × 100 mm) at 40 °C, 2 µL injection volume. In the positive ion mode, the mobile phase consisted of water containing 0.1% formic acid (A) and acetonitrile containing 0.1% formic acid (B). The gradient elution was performed with 5% B for 1.5 min, increasing to 10% B at 2.5 min, then ramping to 40% B at 14 min, rising to 95% B at 22 min, and remaining at 95% B until 25 min, and finally, the column was reconditioned with 5% B for 5 min. The mobile phase consisted of water containing 2 mM ammonium acetate (A) and acetonitrile (B) in the negative ion mode. The gradient elution was the same as in the positive ion mode.
Mass spectrometric analysis was acquired by Peakview 2.2 and MetabolitePilot 2.0.4 software using a quadrupole time-of-flight mass spectrometry (TripleTOF™ 5600, AB Sciex Corporation., Foster City, CA) with MS scans and information dependent acquisition (IDA) MS/MS scans. The mass spectrometer was operated in both positive and negative ion mode with electrospray ionization (ESI) source at 650 ℃. […]
Data set [3] can be described thus: Inhibition of crystallization (solvent-shift method). It is filed as physicochemical. The following applies: for saturated concentration of FLQY2: in Soluplus aqueous solution (2 mg/mL), 37 °C. How it is done:
Inhibition of crystallization was studied using the solvent-shift method. 3 mL FLQY2 DMSO solution (1 mg/mL) was mixed respectively with six different 30 mL aqueous solution including six carriers (2 mg/mL) and stirred at 120 r/min under 37 °C. 0.5 mL solution was collected at 0.0833, 0.5, 1, 2, 4, 6, 8 h, filtered through 0.22 μm filters, and determined the dissolved FLQY2 by HPLC.

A further data set can be described thus: MTT cytotoxicity assay. The following applies: human. It is filed as cell-based, Human. How it is done:
as §1, §2

The subject of data set [4] is HCT 116 and Hep G2 cell lines. On the set-up: method as in PMID 31309350. To be noted: cited from earlier work.
For a further data set, the system named is P-gp. The following applies: cited from earlier work.
The test system of another data set is HT-29 tumor. Briefly: Anticancer activity in vivo in HT-29 tumor-bearing mice. On the set-up: species or system BALB/c mice. To be noted: 100 mpk, i.p./QW, day 28. As for the experimental part: 0.1 mL suspension of HT-29 cells were inoculated in female BALB/c mice at a density of 2 × 10^7/mL. After the tumors grew to 100–200 mm^3 (the day recorded as D0), the mice were randomly grouped and administered with Irinotecan hydrochloride (100 mpk, i.p./QW) (n = 6), Paclitaxel-albumin (15 mpk, i.v./Q4D) (n = 6), FLQY2-SD (1.5 mpk, p.o./QW) (n = 6), FLQY2-SD (1 mpk, p.o./QW) (n = 6), and saline as a blank control (n = 12). The tumor volume and body weight of the mice were recorded every 2 days. On day 28, the mice were sacrificed, and the tumors were surgically removed and weighed. Some parameters were calculated as follows.
tumor volume (TV): TV=1/2×ab^2
relative tumor volume (RTV): RTV=Vt/V0
tumor growth inhibition (TGI): TGI=(1-VT28-VT0/VC28-VC0)×100%
Where a and b are the length and width of the tumors; V0 and Vt are the tumor volume measured at D0 and at each measurement time Dt; VT28 and VT0 are the mean tumor volume in the treatment group at D28 and D0; VC28 and VC0 are the mean tumor volume in the negative control group at D28 and D0.

Where a name gives a salt, the structure may show the parent alone.

With “Polyvinyl caprolactam-polyvinyl acetate-polyethylene glycol graft copolymer [Soluplus®]”, the cell viability result in data set [1] is on record as “exceeded 91.0 ± 3.8%”.

Consider `CC[C@@]1(O)OCc2c1cc1n(c2=O)Cc2c-1nc1cc3c(cc1c2-c1ccc(C(F)(F)F)cc1)OCO3` [M3], for which, in data set [2], the “Source (biological sample in which detected)” value is recorded as “F, U, P”.

In the case of `C=c1c(=O)n2c(c/c1=C(/O)CC)-c1nc3cc4c(cc3c(-c3ccc(C(F)(F)F)cc3)c1C2)OCO4` [M1], the “Source (biological sample in which detected)” value in data set [2] is listed as “F, U, P”.

For the compound `CC[C@@]1(O)C(=O)OCc2c1cc1n(c2=O)Cc2c-1nc1cc3c(cc1c2-c1ccc(C(F)(F)F)cc1)OCO3` [FLQY2, 7-p-trifluoromethylphenyl-FL118], the “saturated concentration of FLQY2” value is listed as 51.60 µg/mL in data set [3] (at 5 min) and 48.76 µg/mL in data set [3] (at 8 h). Further, the crystallization inhibition outcome in data set [3] (mixture including PEG4000, PEG6000, PVP Va64, HS 15 and P407 (2 mg/mL)) is “crystallization and precipitation”. The viability at 2 h, 1 µM in the data set “MTT cytotoxicity assay” was greater than 92.5%. For the same compound, the cytotoxicity entry in data set [1] is reported as “dose-dependent toxicity”. Also, the IC50 result in data set [4] is on record as “nM level”. For the same compound, in the data set with P-gp, the efflux ratio is less than 2.

`CCc1c2c(nc3ccc(OC(=O)N4CCC(N5CCCCC5)CC4)cc13)-c1cc3c(c(=O)n1C2)COC(=O)[C@]3(O)CC` [Irinotecan hydrochloride] came in with a tumour growth inhibition (TGI) in the data set on HT-29 tumor of 66.5%.
